Laboratory results from article PMC5218480 (PLoS ONE, 2017).

Test system: MV-4-11 cells
Experiment: Gene expression microarray analysis (Affymetrix PrimeView) and GSEA
Type: cell-based, human
Design: RFU PODN (11730768_x_at) / Fold change /veh PODN (11730768_x_at) / RFU LINC00158 (11744669_a_at) / Fold change /veh LINC00158 (11744669_a_at) / RFU DUSP10 (11751237_a_at) / Fold change /veh DUSP10 (11751237_a_at) / RFU ID3 (11757404_x_at) / Fold change /veh ID3 (11757404_x_at) / RFU PLEKHG5 (11737974_s_at) / Fold change /veh PLEKHG5 (11737974_s_at) / RFU LRRC4B (11730491_at) / Fold change /veh LRRC4B (11730491_at) / RFU GIMAP4 (11747438_a_at) / Fold change /veh GIMAP4 (11747438_a_at) / RFU KRT8 (11758183_x_at) / Fold change /veh KRT8 (11758183_x_at) / RFU CNN1 (11734310_a_at) / Fold change /veh CNN1 (11734310_a_at) / RFU VPS37D (11726825_at) / Fold change /veh VPS37D (11726825_at) / RFU C10orf10 (11716522_x_at) / Fold change /veh C10orf10 (11716522_x_at) / RFU KIR2DL2 /// KIR2DL4 /// KIR2DL5A /// KIR2DL5B /// KIR2DS1 /// KIR2DS2 /// KIR2DS3 /// KIR2DS4 /// KIR3DL3 /// KIR3DL3 /// KIR3DS1 (11738374_at) / Fold change /veh KIR2DL2 /// KIR2DL4 /// KIR2DL5A /// KIR2DL5B /// KIR2DS1 /// KIR2DS2 /// KIR2DS3 /// KIR2DS4 /// KIR3DL3 /// KIR3DL3 /// KIR3DS1 (11738374_at) / RFU C1QL1 (11718748_at) / Fold change /veh C1QL1 (11718748_at) / RFU TMPRSS4 (11747572_a_at) / Fold change /veh TMPRSS4 (11747572_a_at) / RFU HAMP (11756126_x_at) / Fold change /veh HAMP (11756126_x_at) / RFU RNFT2 (11725882_a_at) / Fold change /veh RNFT2 (11725882_a_at) / RFU NR4A2 (11747474_a_at) / Fold change /veh NR4A2 (11747474_a_at) / RFU ABCC12 (11746883_a_at) / Fold change /veh ABCC12 (11746883_a_at) / RFU TMEM136 (11760407_x_at) / Fold change /veh TMEM136 (11760407_x_at) / RFU CLDN22 /// WWC2 (11732394_at) / Fold change /veh CLDN22 /// WWC2 (11732394_at) / RFU HLA-DPB1 (11760878_x_at) / Fold change /veh HLA-DPB1 (11760878_x_at) / RFU SPINT1 (11716480_a_at) / Fold change /veh SPINT1 (11716480_a_at) / RFU GAP43 (11754022_s_at) / Fold change /veh GAP43 (11754022_s_at) / RFU A4GNT (11735810_at) / Fold change /veh A4GNT (11735810_at) / RFU PRB3 (11715151_x_at) / Fold change /veh PRB3 (11715151_x_at) / RFU TUBB4B (11761932_at) / Fold change /veh TUBB4B (11761932_at) / RFU CAPN14 (11732068_a_at) / Fold change /veh CAPN14 (11732068_a_at) / RFU TMCC2 (11721928_a_at) / Fold change /veh TMCC2 (11721928_a_at) / RFU IRGQ (11745062_a_at) / Fold change /veh IRGQ (11745062_a_at) / RFU FAM174B (11720279_a_at) / Fold change /veh FAM174B (11720279_a_at) / RFU TMPRSS4 (11748680_a_at) / Fold change /veh TMPRSS4 (11748680_a_at) / RFU FAM212B (11763350_a_at) / Fold change /veh FAM212B (11763350_a_at) / RFU PLEKHG5 (11743358_a_at) / Fold change /veh PLEKHG5 (11743358_a_at) / RFU ZSCAN30 (11745921_a_at) / Fold change /veh ZSCAN30 (11745921_a_at) / RFU CMKLR1 (11741424_a_at) / Fold change /veh CMKLR1 (11741424_a_at) / RFU LOC101060620 /// MAPK8IP1 (11723275_at) / Fold change /veh LOC101060620 /// MAPK8IP1 (11723275_at) / RFU SPTSSB (11747773_x_at) / Fold change /veh SPTSSB (11747773_x_at) / RFU PRSS12 (11739890_at) / Fold change /veh PRSS12 (11739890_at) / RFU BIN1 (11741810_x_at) / Fold change /veh BIN1 (11741810_x_at) / RFU WNT11 (11732464_a_at) / Fold change /veh WNT11 (11732464_a_at) / RFU C10orf10 (11716521_a_at) / Fold change /veh C10orf10 (11716521_a_at) / RFU C5orf56 (11738089_at) / Fold change /veh C5orf56 (11738089_at) / RFU CYB561 (11721691_x_at) / Fold change /veh CYB561 (11721691_x_at) / RFU ANKRD19P (11752326_a_at) / Fold change /veh ANKRD19P (11752326_a_at) / RFU OR2T12 /// OR2T33 /// OR2T8 (11738714_s_at) / Fold change /veh OR2T12 /// OR2T33 /// OR2T8 (11738714_s_at) / RFU VCAN (11748164_a_at) / Fold change /veh VCAN (11748164_a_at) / RFU JSRP1 (11732532_at) / Fold change /veh JSRP1 (11732532_at) / RFU KRTAP10-11 (11738290_x_at) / Fold change /veh KRTAP10-11 (11738290_x_at) / RFU MYO3A (11730013_a_at) / Fold change /veh MYO3A (11730013_a_at) / RFU EBF3 (11725865_a_at) / Fold change /veh EBF3 (11725865_a_at) / RFU CAMK2N1 (11719241_x_at) / Fold change /veh CAMK2N1 (11719241_x_at) / RFU C5orf56 (11738088_a_at) / Fold change /veh C5orf56 (11738088_a_at) / RFU OLFML3 (11715873_a_at) / Fold change /veh OLFML3 (11715873_a_at) / RFU LOC100653217 /// NTM (11731650_a_at) / Fold change /veh LOC100653217 /// NTM (11731650_a_at) / RFU MAPK11 (11762145_a_at) / Fold change /veh MAPK11 (11762145_a_at) / RFU FIZ1 (11724087_x_at) / Fold change /veh FIZ1 (11724087_x_at) / RFU OASL (11726364_x_at) / Fold change /veh OASL (11726364_x_at) / RFU SOX15 (11748057_x_at) / Fold change /veh SOX15 (11748057_x_at) / RFU CD79A (11719716_a_at) / Fold change /veh CD79A (11719716_a_at) / RFU HIST1H1D (11736915_at) / Fold change /veh HIST1H1D (11736915_at) / RFU CASKIN2 (11723855_a_at) / Fold change /veh CASKIN2 (11723855_a_at) / RFU LOC730098 (11760151_x_at) / Fold change /veh LOC730098 (11760151_x_at) / RFU OR4N2 (11742367_at) / Fold change /veh OR4N2 (11742367_at) / RFU PRRT2 (11749266_a_at) / Fold change /veh PRRT2 (11749266_a_at) / RFU SNX32 (11753110_a_at) / Fold change /veh SNX32 (11753110_a_at) / RFU CDHR5 (11726645_a_at) / Fold change /veh CDHR5 (11726645_a_at) / RFU RCAN1 (11760418_a_at) / Fold change /veh RCAN1 (11760418_a_at) / RFU FAM167A (11723789_a_at) / Fold change /veh FAM167A (11723789_a_at) / RFU FAM26E (11764081_at) / Fold change /veh FAM26E (11764081_at) / RFU ISYNA1 (11749810_s_at) / Fold change /veh ISYNA1 (11749810_s_at) / RFU ACY1 (11761880_at) / Fold change /veh ACY1 (11761880_at) / RFU 11764098_at / Fold change /veh 11764098_at / RFU SAMD14 (11745864_x_at) / Fold change /veh SAMD14 (11745864_x_at) / RFU NPB (11741838_a_at) / Fold change /veh NPB (11741838_a_at) / RFU TMPRSS6 (11731388_a_at) / Fold change /veh TMPRSS6 (11731388_a_at) / RFU KRTAP10-2 (11738614_at) / Fold change /veh KRTAP10-2 (11738614_at) / RFU ARHGAP8 /// PRR5-ARHGAP8 (11727945_x_at) / Fold change /veh ARHGAP8 /// PRR5-ARHGAP8 (11727945_x_at) / RFU KRTAP5-7 /// NADSYN1 (11734609_at) / Fold change /veh KRTAP5-7 /// NADSYN1 (11734609_at) / RFU RASL12 (11751679_a_at) / Fold change /veh RASL12 (11751679_a_at) / RFU CDKN2B (11736163_a_at) / Fold change /veh CDKN2B (11736163_a_at) / RFU PRF1 (11729649_at) / Fold change /veh PRF1 (11729649_at) / RFU, ZNF638 /// ZNF638-IT1 / Fold change vs veh, ZNF638 /// ZNF638-IT1 / RFU, PANK3 / Fold change vs veh, PANK3 / RFU, SH3YL1 / Fold change vs veh, SH3YL1 / RFU, ZEB2 / Fold change vs veh, ZEB2 / RFU, NRIP1 / Fold change vs veh, NRIP1 / RFU, PTTG1IP / Fold change vs veh, PTTG1IP / RFU, CAPN2 / Fold change vs veh, CAPN2 / RFU, MED14 / Fold change vs veh, MED14 / RFU, SNORA58 / Fold change vs veh, SNORA58 / RFU, C1orf63 / Fold change vs veh, C1orf63 / RFU, LRRFIP1 / Fold change vs veh, LRRFIP1 / RFU, NDUFAF7 / Fold change vs veh, NDUFAF7 / RFU, SLC12A2 / Fold change vs veh, SLC12A2 / RFU, IBTK / Fold change vs veh, IBTK / RFU, ESF1 / Fold change vs veh, ESF1 / Fold change vs veh, TMEM50B / RFU, TAOK1 / Fold change vs veh, TAOK1 / RFU, ACBD3 / Fold change vs veh, ACBD3 / RFU, TMA16 / Fold change vs veh, TMA16 / RFU, RWDD3 / Fold change vs veh, RWDD3 / RFU, BCAT1 / Fold change vs veh, BCAT1 / RFU, EDEM3 / Fold change vs veh, EDEM3 / RFU, TMEM33 / Fold change vs veh, TMEM33 / RFU, WDR75 / Fold change vs veh, WDR75 / RFU, AHCTF1 / Fold change vs veh, AHCTF1 / RFU, TFRC / Fold change vs veh, TFRC / RFU, ZDHHC17 / Fold change vs veh, ZDHHC17 / RFU, NOM1 / Fold change vs veh, NOM1 / RFU, ARL8B / Fold change vs veh, ARL8B / RFU, ZBTB11 / Fold change vs veh, ZBTB11 / RFU, TAMM41 / Fold change vs veh, TAMM41 / RFU, KIAA1704 /// LOC100996395 / Fold change vs veh, KIAA1704 /// LOC100996395 / RFU, ING1 / Fold change vs veh, ING1 / RFU, TRMT61B / Fold change vs veh, TRMT61B / RFU, FUBP3 / Fold change vs veh, FUBP3 / RFU, TP53 / Fold change vs veh, TP53 / RFU, TNKS2 / Fold change vs veh, TNKS2 / RFU, ZFP14 / Fold change vs veh, ZFP14 / RFU, ACTR2 / Fold change vs veh, ACTR2 / RFU, PPP3R1 / Fold change vs veh, PPP3R1 / RFU, PIK3R1 / Fold change vs veh, PIK3R1 / RFU, HNRNPA1 / Fold change vs veh, HNRNPA1 / RFU, RNF170 / Fold change vs veh, RNF170 / RFU, ZNF28 / Fold change vs veh, ZNF28 / RFU, RNGTT / Fold change vs veh, RNGTT / RFU, OGT / Fold change vs veh, OGT / RFU, BRD1 / Fold change vs veh, BRD1 / RFU, MARS / Fold change vs veh, MARS / RFU, ZNF655 / Fold change vs veh, ZNF655 / RFU, FAHD1 / Fold change vs veh, FAHD1 / RFU, BDP1 / Fold change vs veh, BDP1 / RFU, LRRCC1 / Fold change vs veh, LRRCC1 / RFU, ARID1A / Fold change vs veh, ARID1A / RFU, ZNF146 / Fold change vs veh, ZNF146 / RFU, ZNF330 / Fold change vs veh, ZNF330 / RFU, GPN3 / Fold change vs veh, GPN3 / RFU, C9orf123 / Fold change vs veh, C9orf123 / RFU, N4BP2L2 / Fold change vs veh, N4BP2L2 / RFU, ARFIP1 / Fold change vs veh, ARFIP1 / RFU, FAM179B / Fold change vs veh, FAM179B / RFU, BCL10 / Fold change vs veh, BCL10 / RFU, UHRF1BP1L / Fold change vs veh, UHRF1BP1L / RFU, BET1 / Fold change vs veh, BET1 / RFU, CNOT2 / Fold change vs veh, CNOT2 / RFU, ZNF268 / Fold change vs veh, ZNF268 / Fold change vs veh, ZNF507 / RFU, DGCR2 / Fold change vs veh, DGCR2 / RFU, WDSUB1 / Fold change vs veh, WDSUB1 / Fold change vs veh, HSP90B1 /// MIR3652 / RFU, ADSS / Fold change vs veh, ADSS / RFU, GK / Fold change vs veh, GK / RFU, ZNF148 / Fold change vs veh, ZNF148 / RFU, TAF9 / Fold change vs veh, TAF9 / RFU, SLC1A5 / Fold change vs veh, SLC1A5 / RFU, SLMO2 / Fold change vs veh, SLMO2 / RFU, ABCC4 / Fold change vs veh, ABCC4 / RFU, LOC101060439 /// RAP1B / Fold change vs veh, LOC101060439 /// RAP1B / RFU, RFX7 / Fold change vs veh, RFX7 / RFU, GTPBP10 / Fold change vs veh, GTPBP10 / RFU, CNEP1R1 / Fold change vs veh, CNEP1R1 / RFU, BIVM-ERCC5 /// ERCC5 / Fold change vs veh, BIVM-ERCC5 /// ERCC5 / RFU, ILF3 / Fold change vs veh, ILF3 / RFU 11762660_at / Fold change /veh 11762660_at / RFU VCAN (11757783_s_at) / Fold change /veh VCAN (11757783_s_at) / RFU DDX43 (11728927_at) / Fold change /veh DDX43 (11728927_at) / RFU KRT8 (11758188_x_at) / Fold change /veh KRT8 (11758188_x_at) / RFU NKD1 (11759106_at) / Fold change /veh NKD1 (11759106_at) / RFU SRD5A1 (11742802_a_at) / Fold change /veh SRD5A1 (11742802_a_at) / RFU TPSAB1 /// TPSB2 (11721975_s_at) / Fold change /veh TPSAB1 /// TPSB2 (11721975_s_at) / RFU GSTM3 (11746129_a_at) / Fold change /veh GSTM3 (11746129_a_at) / RFU IL23R (11737362_x_at) / Fold change /veh IL23R (11737362_x_at) / RFU TMEM51 (11727254_a_at) / Fold change /veh TMEM51 (11727254_a_at) / RFU PIWIL2 (11732686_x_at) / Fold change /veh PIWIL2 (11732686_x_at) / RFU ORM1 (11744905_x_at) / Fold change /veh ORM1 (11744905_x_at) / RFU CCDC152 (11743942_at) / Fold change /veh CCDC152 (11743942_at) / RFU ECM1 (11717891_a_at) / Fold change /veh ECM1 (11717891_a_at) / RFU IL23R (11748794_a_at) / Fold change /veh IL23R (11748794_a_at) / RFU TNFAIP8L3 (11732012_x_at) / Fold change /veh TNFAIP8L3 (11732012_x_at) / RFU MBOAT4 (11741988_at) / Fold change /veh MBOAT4 (11741988_at) / RFU 11764193_at / Fold change /veh 11764193_at / RFU TMEM53 (11763286_at) / Fold change /veh TMEM53 (11763286_at) / RFU MAGEB2 (11727129_at) / Fold change /veh MAGEB2 (11727129_at) / RFU TMEM200A (11744735_a_at) / Fold change /veh TMEM200A (11744735_a_at) / RFU CCDC152 (11751479_a_at) / Fold change /veh CCDC152 (11751479_a_at) / RFU FAM211A (11726209_a_at) / Fold change /veh FAM211A (11726209_a_at) / RFU RGS16 (11746705_a_at) / Fold change /veh RGS16 (11746705_a_at) / RFU VCAN (11755009_s_at) / Fold change /veh VCAN (11755009_s_at) / RFU RHOB (11743442_s_at) / Fold change /veh RHOB (11743442_s_at) / RFU RGS16 (11720943_a_at) / Fold change /veh RGS16 (11720943_a_at) / RFU RGS16 (11720944_at) / Fold change /veh RGS16 (11720944_at) / RFU, VPS4B / Fold change vs veh, VPS4B / RFU, CREB1 / Fold change vs veh, CREB1 / RFU, DNAJC13 / Fold change vs veh, DNAJC13 / RFU, GNAQ / Fold change vs veh, GNAQ / RFU, CDK5R1 / Fold change vs veh, CDK5R1 / RFU, ZRANB3 / Fold change vs veh, ZRANB3 / RFU, CUL4A / Fold change vs veh, CUL4A / RFU, CCNY / Fold change vs veh, CCNY / RFU, UFL1 / Fold change vs veh, UFL1 / RFU, COG3 / Fold change vs veh, COG3 / RFU, DIAPH2 / Fold change vs veh, DIAPH2 / RFU, SKA2 / Fold change vs veh, SKA2 / RFU, AFF3 / Fold change vs veh, AFF3 / RFU, LMF1 / Fold change vs veh, LMF1 / RFU, IPO11 / Fold change vs veh, IPO11 / RFU, DFFB / Fold change vs veh, DFFB / RFU, FOXP1 / Fold change vs veh, FOXP1 / RFU, CARD8 / Fold change vs veh, CARD8 / RFU, STRN3 / Fold change vs veh, STRN3 / RFU, ADK / Fold change vs veh, ADK / RFU, RASSF2 / Fold change vs veh, RASSF2 / RFU, WIPF1 / Fold change vs veh, WIPF1 / RFU, LARP1B / Fold change vs veh, LARP1B / RFU, RASA1 / Fold change vs veh, RASA1 / RFU, RB1 / Fold change vs veh, RB1 / RFU, PPFIA1 / Fold change vs veh, PPFIA1 / RFU, MAT2A / Fold change vs veh, MAT2A / RFU, CCT5 / Fold change vs veh, CCT5 / RFU, WDR92 / Fold change vs veh, WDR92 / RFU, CUX1 / Fold change vs veh, CUX1 / RFU, TTC7A / Fold change vs veh, TTC7A / RFU, TMEM135 / Fold change vs veh, TMEM135 / RFU, DEPTOR / Fold change vs veh, DEPTOR / RFU, CPM / Fold change vs veh, CPM / RFU, DNAJB6 / Fold change vs veh, DNAJB6 / RFU, CACNA2D3 / Fold change vs veh, CACNA2D3 / RFU, DTX4 / Fold change vs veh, DTX4 / RFU, TFCP2 / Fold change vs veh, TFCP2 / RFU, GMCL1 /// GMCL1P1 / Fold change vs veh, GMCL1 /// GMCL1P1 / RFU, AEBP2 / Fold change vs veh, AEBP2 / RFU, SNHG1 /// SNORD22 /// SNORD25 /// SNORD26 /// SNORD27 /// SNORD28 /// SNORD29 /// SNORD31 / Fold change vs veh, SNHG1 /// SNORD22 /// SNORD25 /// SNORD26 /// SNORD27 /// SNORD28 /// SNORD29 /// SNORD31 / Fold change (Aza/veh), C12orf56 (ProbeSet 11735607_a_at) / Fold change (ACY-1035/veh), C12orf56 (ProbeSet 11735607_a_at) / Fold change (Aza/veh), FGFR1OP (ProbeSet 11751329_s_at) / Fold change (ACY-1035/veh), FGFR1OP (ProbeSet 11751329_s_at) / Fold change (Aza/veh), VPS36 (ProbeSet 11739960_a_at) / Fold change (ACY-1035/veh), VPS36 (ProbeSet 11739960_a_at) / RFU SYPL1 (11715823_x_at) / Fold change /veh SYPL1 (11715823_x_at) / RFU IGFBP7 (11715501_s_at) / Fold change /veh IGFBP7 (11715501_s_at) / RFU REEP3 (11722064_at) / Fold change /veh REEP3 (11722064_at) / RFU IGLL1 (11728026_x_at) / Fold change /veh IGLL1 (11728026_x_at): dose or concentration left out as unconfirmed
Details: ProbeSet 11743580_s_at; LIST B

Nc1ncn([C@@H]2O[C@H](CO)[C@@H](O)[C@H]2O)c(=O)n1 [azacitidine]
Fold change vs veh, ACTR2: 0.91
